In patent publication US20240082184A1, “IMPROVED TREATMENT FOR GLOBOID CELL LEUKODSYTROPHY OR KRABBE DISEASE” (priority 2021, published 2024):

Columns and labels:
Assay type in all cases: in vivo
[1] = tested on: GALC−/− mice; experiment: Immunofluorescence (immunostaining) of brain sections for PLP, MFI; details: cerebellum and corpus callosum, oral, 15 days
Procedure: After 2 weeks of treatment, mice were anesthetized and perfused with PBS (pH 7.4) and then with 4% (w/v) paraformaldehyde solution in PBS. […] Briefly, brains were incubated in PBS containing 0.05% Tween 20 (PBST) and 10% sucrose for 3 h and then 30% sucrose overnight at 4° C. Hemisected brains was then embedded in O.C.T (Tissue Tech) at −80° C. and processed for conventional cryosectioning. Frozen cerebellar and corpus callosum sections (40 micron thick) were treated with cold ethanol (−20° C.) followed by two rinses in PBS, blocking with 3% bovine serum albumin in PBST and labeling with anti-PLP antibody. After three washes in PBST, sections were further incubated with Cy5 (Jackson ImmunoResearch Laboratories, Inc.). The samples were mounted and observed under the Olympus BX41 fluorescent microscope equipped with a Hamamatsu ORCA-03G camera. Captured images were calibrated with the scale bar and then opened in ImageJ software for further quantification analysis. […] The final MFI was analyzed after subtracting the value with the background signal of respective images.
DAPI was used to visualize nucleus. Mean fluorescence intensity (MFI) of PLP was quantified (C, cerebellum; D, corpus callosum) in two different sections of each of five mice (n=5) per group. […]

[2] = tested on: GALC−/− mice; experiment: Luxol fast blue (LFB) staining for myelin; details: cerebellum and corpus callosum, oral, 15 days
Text: Cerebellar and corpus callosum sections of paraformaldehyde-fixed brain tissues were stained with Luxol fast blue for myelin as described elsewhere. […] FIG. 5 similarly depicts luxol fast blue (LFB) staining of myelin in the cerebellum (A) and corpus callosum (B) of GALC^−/− mice following identical treatment. Results represent analysis of two different sections of each of five mice (n=5) per group. […] FIG. 13 similarly depicts luxol fast blue (LFB) staining of myelin in the cerebellum (A) and corpus callosum (B) of GALC^−/− mice following identical treatment. Results represent analysis of two different sections of each of five mice (n=5) per group.

[3] = tested on: GALC−/− mice; experiment: Open field locomotor activity; details: oral, 15 days
Procedure: The open field test was conducted for analyzing general motor activities of mice. Locomotor activities were monitored by open field performance and footprint analysis as described in previous studies. […] Mice were placed in the center of a square wooden open field arena (40×40 cm, 30 cm high walls) and allowed to explore freely for 5 min. The movements of the mice were recorded using a camera linked to the Noldus system and EthoVisionXT software. Several parameters including velocity, total distance moved, movement/center point frequency, body elongation, etc. were analyzed to assess the general locomotor activity.
Following 15 days of treatment, open field locomotor activities were measured. […] Parameters related to movement of animals were obtained from the software and presented as velocity center point (B), distance moved center point (C), movement-center point frequency (D), and body elongation (E).
Locomotor activity was monitored as in Example 5. Following 15 days of treatment, open field locomotor activities were measured. […] Parameters related to movement of animals were obtained from the software and presented as velocity center point (B), distance moved center point (C), movement-center point frequency (D), and body elongation (E).

[4] = tested on: GALC−/− mice; experiment: Lifespan (percentage of survival, Kaplan-Meier plot); details: oral
Text: Heterozygous animals were used only for breeding purposes and were not used in the study. Animal maintaining and experiments were in accordance with National Institute of Health guidelines and were approved by the Institutional Animal Care and Use committee of the Rush University of Medical Center, Chicago, IL. Treated and untreated mice were allowed to survive humanely as long as possible. When a mouse reached a moribund stage, it was sacrificed.
As discussed below, after 2 weeks of oral feeding, several parameters were monitored including locomotor activity followed by examining myelin status and glial activation in cerebellum and corpus callosum. Longevity of GALC^−/− mice after drug treatment was also examined. In that case, GALC^−/− mice were treated with the drugs daily until mice reached the moribund stage.
Mice were treated continually until they reached the moribund stage at which point they were humanely sacrificed.

[5] = tested on: GALC−/− mice; experiment: Levels of myelin proteins PLP and MBP in brain by Western blot; details: gemfibrozil 8 mg/kg/d alone or with vitamin A 150 IU/kg/d
[6] = tested on: GALC−/− mice; experiment: Astroglial activation: GFAP and iNOS levels in brain by Western blot; details: gemfibrozil 8 mg/kg/d alone or with vitamin A 150 IU/kg/d, oral, 15 days
[7] = cerebellum, oral gavage, 15 days from 10 d of age, FIG. 2
[8] = corpus callosum, oral, 15 days, FIG. 3

**Q.** Which results are given for `O=C(O)C=Cc1ccccc1` [cinnamic acid]?
**A.** myelin status by PLP immunostaining (MFI of PLP) ([1]; cinnamic acid 25 and 50 mg/kg/day, FIG. 12): protecting myelin; myelin status by luxol fast blue (LFB) staining ([2]; cinnamic acid 25 and 50 mg/kg/day, FIG. 13): protection of myelin; motor activity in open field versus vehicle treatment ([3]; cinnamic acid 25 and 50 mg/kg/day, FIG. 16): increased; lifespan (percentage of survival) ([4]; cinnamic acid 25 and 50 mg/kg/day, until moribund stage, FIG. 17): increases the lifespan

**Q.** `Cc1ccc(C)c(OCCCC(C)(C)C(=O)O)c1` [gemfibrozil] was tested. Which “myelin status by PLP immunostaining (MFI of PLP)” value ([1]; gemfibrozil 8 mg/kg/d alone or with vitamin A 150 IU/kg/d, FIG. 4) did it give?
**A.** protecting myelin

**Q.** What about the “myelin status by luxol fast blue (LFB) staining” value ([2]; gemfibrozil 8 mg/kg/d alone or with vitamin A 150 IU/kg/d, FIG. 5) of the same molecule?
**A.** protection of myelin

**Q.** What about the “motor activity in open field versus vehicle treatment” value ([3]; gemfibrozil 8 mg/kg/d alone or with vitamin A 150 IU/kg/d, FIG. 8) of the same molecule?
**A.** increased

**Q.** What about the “level of MBP (MBP/Actin relative to control)” value [5, 7] of the same molecule?
**A.** significantly increased

**Q.** What about the “level of PLP (PLP/Actin relative to control)” value [5, 7] of the same molecule?
**A.** significantly increased

**Q.** And the “level of MBP (MBP/Actin relative to control)” value [5, 8]?
**A.** significantly increased

**Q.** And the “level of PLP (PLP/Actin relative to control)” value [5, 8]?
**A.** significantly increased

**Q.** And the “level of GFAP (GFAP/Actin relative to control)” value ([6]; cerebellum, FIG. 6)?
**A.** significantly reduced

**Q.** What about the “level of iNOS (iNOS/Actin relative to control)” value ([6]; cerebellum, FIG. 6) of the same molecule?
**A.** significantly reduced

**Q.** What about the “level of GFAP (GFAP/Actin relative to control)” value ([6]; corpus callosum, FIG. 7) of the same molecule?
**A.** significantly reduced

**Q.** And the “level of iNOS (iNOS/Actin relative to control)” value ([6]; corpus callosum, FIG. 7)?
**A.** significantly reduced

**Q.** What about the “lifespan (percentage of survival)” value ([4]; gemfibrozil 8 mg/kg/d alone or with vitamin A 150 IU/kg/d, daily until moribund stage, FIG. 9) of the same molecule?
**A.** increase the lifespan
